Test system: P. renovo
Test: plating assay to determine phosphorus source utilization capacity
Type: cell-based, Picochlorum renovo
Details: wild-type P. renovo, agar plates, 0.313 mM phosphite addition, 5-day outgrowth
Procedure: FIG. 1 depicts a plating assay to determine phosphorus source utilization capacity in P. renovo.
Microalgae were cultivated under constant illumination at […] of light, 2% CO2, and constant temperature of 33° C. These conditions were utilized to generate seed cultures for transformation and outgrowth of transformants to generate clonal isolates on agar plates. Media was comprised of a modified f/2 recipe, as described previously. For phosphorus source utilization analyses, agar plates were prepared as described previously, utilizing 8.75 g/L salinity, via dilution of seawater. […] Approximately 4.75×10^8 early log phase cells were plated and incubated under the above conditions; plates were imaged after 5 days of growth.

Q: What does the source list for `O=[PH](O)O` [phosphite, Sodium phosphite dibasic pentahydrate]?
A: bleaching compared to control with no added phosphorus source: noticeable bleaching occurred; growth with phosphite as the sole phosphorus source: no growth was observed
